Reference: patent US10519140B2, “Indolin-2-one derivatives” (Hoffmann-La Roche Inc., priority 2015, dated 2019)

Each compound was assayed on L-687,414-induced hyperlocomotion (assay: L-687,414-induced hyperlocomotion). Conditions: Mus musculus; mice; dose 30 mg/kg ip, 15 min before 50 mg/kg s.c. L-687,414.
Assay type: in vivo
Source text: The authors described that hyperlocomotion induced by L-687,414 was inhibited by a series of known antipsychotic drugs. […] These findings predict antipsychotic activity for the present compounds, making them useful for the treatment of positive (psychosis) and negative symptoms of schizophrenia, substance abuse, alcohol and drug addiction, obsessive-compulsive disorders, cognitive impairment, bipolar disorders, mood disorders, major depression, resistant depression, anxiety disorders, Alzheimer's disease, autism, Parkinson's disease, chronic pain, borderline personality disorder, sleep disturbances, chronic fatigue syndrome, stiffness, antiinflammatory effects in arthritis and balance problems, and treatment of epilepsy and neurodevelopmental disorders with co-morbid epilepsy.
The described compounds of formula I reduce L-687,414-induced hyperlocomotion. This was assessed by using a computerized Digiscan 16 Animal Activity Monitoring System (Omnitech Electronics, Columbus, Ohio) to quantify locomotor activity. Animals were kept under a 12 h light/dark cycle and experiments were performed during the light period. Each activity monitoring chamber consisted of a Plexiglas box (41×41×28 cm; W×L×H) with sawdust bedding on the floor surrounded by invisible horizontal and vertical infrared sensor beams. The test boxes were divided by a Plexiglas cross providing each mouse with 20×20 cm of moving space. Cages were connected to a Digiscan Analyzer linked to a computer that constantly collected the beam status information. Records of photocell beam interruptions for individual animals were taken every 5 min over the duration of the experimental session and the sum of the first 6 periods was used as the final parameter. At least 8 mice were used in each treatment group. Compounds were administered i.p. 15 min before a s.c. injection of 50 mg/kg of L-687,414. Mice were then transferred from their home cage to the recording chambers for a 15-min habituation phase allowing free exploration of the new environment. Horizontal activity was then recorded for a 30-min time period. The % inhibition of L-687,414-induced hyperlocomotion was calculated according to the equation: ((Veh+L-687,414 horizontal activity−drug+L-687,414 horizontal activity)/Veh+L−687,414 horizontal activity)×100
ID50 values, defined as doses of each compound producing 50% inhibition of L-687,414-induced hyperlocomotion, were calculated by linear regression analysis of a dose-response data using an Excel-based computer-fitting program.
As data was not presupposed to be normally distributed, groups treated with test compounds were statistically compared with the control (vehicle-treated) group using one-tailed Mann Whitney U tests. In statistics, the Mann-Whitney Utest (also called the Mann-Whitney-Wilcoxon (MWW) or Wilcoxon rank-sum test) is a non-parametric statistical hypothesis test for assessing whether one of two samples of independent observations tends to have larger values than the other. It is one of the most well-known non-parametric significance tests. […] P values given in table 1 are one-tailed since only decreases in locomotion were expected and tested for (Mann, H. B., Whitney, D. R. (1947), “On a Test of Whether one of Two Random Variables is Stochastically Larger than the Other”, Annals of Mathematical Statistics, 18 (1), 50-60).
`Cc1ncc(-c2ccc3c(c2)N(c2cnc(C)c(N4CCOCC4)n2)C(=O)C3(C)C)cn1` [Example 18, 3,3-Dimethyl-1-(5-methyl-6-morpholinopyrazin-2-yl)-6-(2-methylpyrimidin-5-yl)indolin-2-one] gave an inhibition in vivo at 30 mg/kg of 88.8%.
For `Cc1ncc(-c2ccc3c(c2)N(c2cnc4c(c2)C(C)(C)C(=O)N4C)C(=O)C3(C)C)cn1` [Example 54, 5-(3,3-Dimethyl-6-(2-methylpyrimidin-5-yl)-2-oxoindolin-1-yl)-1,3,3-trimethyl-1H-pyrrolo[2,3-b]pyridin-2(3H)-one], the inhibition in vivo at 30 mg/kg was 93.5%.
With `Cc1ncc(-c2ccc3c(c2)N(c2ccc4c(n2)N(C)C(=O)C4(C)C)C(=O)C3(C)C)cn1` [Example 39, 6-(3,3-Dimethyl-6-(2-methylpyrimidin-5-yl)-2-oxoindolin-1-yl)-1,3,3-trimethyl-1H-pyrrolo[2,3-b]pyridin-2(3H)-one] the inhibition in vivo at 30 mg/kg was 99.5%.
Work on `Cc1ncc(-c2ccc3c(c2)N(c2cncc(N4CCOCC4)n2)C(=O)C3(C)C)cn1` [Example 1, 3,3-Dimethyl-6-(2-methylpyrimidin-5-yl)-1-(6-morpholinopyrazin-2-yl)indolin-2-one] yielded an inhibition in vivo at 30 mg/kg of 90%.
`Cc1ncc(-c2ccc3c(c2)N(c2cncc(N4CCCC4=O)n2)C(=O)C3(C)C)cn1` [Example 3, 3,3-Dimethyl-6-(2-methylpyrimidin-5-yl)-1-(6-(2-oxopyrrolidin-1-yl)pyrazin-2-yl)indolin-2-one] gave an inhibition in vivo at 30 mg/kg of 87.8%.
In the case of `Cc1ncc(-c2ccc3c(c2)N(c2cncc(N4CCOC4=O)n2)C(=O)C3(C)C)cn1` [Example 15, 3-(6-(3,3-Dimethyl-6-(2-methylpyrimidin-5-yl)-2-oxoindolin-1-yl)pyrazin-2-yl)oxazolidin-2-one], the inhibition in vivo at 30 mg/kg is reported as 87.1%.
`Cc1ncc(-c2ccc3c(c2)N(c2cnc(C)c(N4CCOC4=O)n2)C(=O)C3(C)C)cn1` [Example 20, 3-(6-(3,3-Dimethyl-6-(2-methylpyrimidin-5-yl)-2-oxoindolin-1-yl)-3-methylpyrazin-2-yl)oxazolidin-2-one] was tested, and the inhibition in vivo at 30 mg/kg was 89.7%.
With `Cc1ncc(-c2ccc3c(c2)N(c2cnc(-n4ccnc4C)cn2)C(=O)C3(C)C)cn1` [Example 50, 3,3-Dimethyl-1-(5-(2-methyl-1H-imidazol-1-yl)pyrazin-2-yl)-6-(2-methylpyrimidin-5-yl)indolin-2-one] the inhibition in vivo at 30 mg/kg was 96.3%.
